Tests used:
S. aureus Newman [1] = experiment: Bliss interaction score (quartile over a dose matrix) (fitness difference); higher = more antagonism (negative = synergy)
In short: (§1)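 Fitness was OD595 at entry into stationary phase divided by the plate's robust no-drug mean and capped at 1; single-drug fitness was inferred from combination data. The Bliss score is observed minus expected (product) fitness, summarised by quartiles over technical, biological and donor/recipient replicates.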

S. pneumoniae D39V [2] = experiment: as above
In short: as §1

B. subtilis 168 [3] = experiment: as above
In short: as §1

S. aureus DSM 20231 [4] = experiment: as above
In short: as §1

S. aureus Newman [5] = experiment: fitness (endpoint OD595 vs no drug) (fraction); higher = more growth
In short: (§2)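 Plates with 384 wells were inoculated at OD595 0.01 using 30 µl of TSB, LB Lennox or CY, or 55 µl for S. pneumoniae. Incubation was at 37 °C, with OD595 measured every 30 min for 14 h. Fitness is the stationary-phase transition optical density over the robust mean of no-drug control wells, after first-reading background subtraction; it is capped at 1.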

S. aureus DSM 20231 [6] = experiment: as above
In short: as §2

S. pneumoniae D39V [7] = experiment: as above
In short: as §2

B. subtilis 168 [8] = experiment: as above
In short: as §2
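Wherever Bliss interaction score (quartile over a dose matrix) is given: first quartile when negative (synergy) and third quartile when positive (antagonism).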

O=C(N[C@H](CO)[C@H](O)c1ccc([N+](=O)[O-])cc1)C(Cl)Cl [Chloramphenicol] + CN1C2=CC=CC=C2N=C3C1=CC=CC3=O [Pyocyanin]
Conditions | Bliss interaction score
B. subtilis 168 [3] | 0.049
S. aureus DSM 20231 [4] | -0.0896
S. aureus Newman [1] | -0.0632
S. pneumoniae D39V [2] | 0.0521

fitness
Conditions | first compound 0.75 µg/mL | first compound 1.5 µg/mL | first compound 3 µg/mL
S. aureus DSM 20231 [6], partner 1.25 µg/mL | 0.645 | – | 0.0788
S. aureus DSM 20231 [6], partner 2.5 µg/mL | – | 0.321 | –
S. aureus DSM 20231 [6], partner 5 µg/mL | – | 0.332 | 0.0653
S. aureus Newman [5], partner 1.25 µg/mL | 0.741 | 0.5 | 0.174
S. aureus Newman [5], partner 2.5 µg/mL | 0.725 | 0.41 | 0.137
S. aureus Newman [5], partner 5 µg/mL | 0.333 | 0.173 | 0.0578

O=C(N[C@H](CO)[C@H](O)c1ccc([N+](=O)[O-])cc1)C(Cl)Cl [Chloramphenicol] + CN(N=O)C(=O)N[C@@H](C=O)[C@@H](O)[C@H](O)[C@H](O)CO [Streptozotocin]
Conditions | Bliss interaction score
B. subtilis 168 [3] | 0.0462
S. aureus DSM 20231 [4] | -0.0514
S. aureus Newman [1] | 0.0386
S. pneumoniae D39V [2] | -0.0846

fitness
Conditions | first compound 0.75 µg/mL | first compound 1.5 µg/mL | first compound 3 µg/mL
S. aureus DSM 20231 [6], partner 0.15 µg/mL | 0.677 | 0.481 | 0.104
S. aureus DSM 20231 [6], partner 0.3 µg/mL | 0.603 | 0.46 | 0.1
S. aureus DSM 20231 [6], partner 0.6 µg/mL | 0.616 | 0.385 | 0.0772
S. aureus Newman [5], partner 0.15 µg/mL | 0.705 | 0.464 | –
S. aureus Newman [5], partner 0.3 µg/mL | 0.605 | 0.402 | 0.0999
S. aureus Newman [5], partner 0.6 µg/mL | 0.47 | 0.295 | 0.0766

CCC[C@@H]1C[C@@H](C(=O)N[C@@H]([C@H]2O[C@H](SC)[C@H](O)[C@@H](O)[C@H]2O)[C@@H](C)O)N(C)C1 [Lincomycin] + CC1=C\[C@@H](O)CC(=O)Cc2nc(co2)C(=O)N2CCC=C2C(=O)O[C@H](C(C)C)[C@H](C)/C=C/C(=O)NC\C=C\1 [Virginiamycin M1]
Conditions | Bliss interaction score
B. subtilis 168 [3] | -0.0247
S. aureus DSM 20231 [4] | -0.0744
S. aureus Newman [1] | 0.0588
S. pneumoniae D39V [2] | -0.0882

fitness, one replicate
Conditions | first compound 0.1 µg/mL | first compound 0.2 µg/mL | first compound 0.4 µg/mL | first compound 0.8 µg/mL
S. aureus DSM 20231 [6], partner 0.5 µg/mL | 0.878 | 0.66 | 0.3 | –
S. aureus DSM 20231 [6], partner 1 µg/mL | 0.7 | 0.486 | 0.238 | –
S. pneumoniae D39V [7], partner 0.15 µg/mL | – | 0.807 | 0.694 | 0.596
S. pneumoniae D39V [7], partner 0.3 µg/mL | – | 0.796 | 0.657 | 0.573
S. pneumoniae D39V [7], partner 0.5 µg/mL | – | 0.8 | 0.761 | 0.449
S. pneumoniae D39V [7], partner 1 µg/mL | – | 0.71 | 0.655 | 0.416

Conditions | fitness
B. subtilis 168 [8], first compound 0.1 µg/mL, partner 0.0625 µg/mL | 0.945
B. subtilis 168 [8], first compound 0.1 µg/mL, partner 0.125 µg/mL | 0.936
B. subtilis 168 [8], first compound 0.1 µg/mL, partner 0.25 µg/mL | 0.922
B. subtilis 168 [8], first compound 0.2 µg/mL, partner 0.0625 µg/mL | 0.91
B. subtilis 168 [8], first compound 0.2 µg/mL, partner 0.125 µg/mL | 0.925
B. subtilis 168 [8], first compound 0.2 µg/mL, partner 0.25 µg/mL | 0.949
B. subtilis 168 [8], first compound 0.4 µg/mL, partner 0.0625 µg/mL | 0.99
B. subtilis 168 [8], first compound 0.4 µg/mL, partner 0.125 µg/mL | 0.871
B. subtilis 168 [8], first compound 0.4 µg/mL, partner 0.25 µg/mL | 0.985
S. aureus DSM 20231 [6], first compound 0.1 µg/mL, partner 0.0625 µg/mL | 0.844
S. aureus DSM 20231 [6], first compound 0.1 µg/mL, partner 0.125 µg/mL | 0.857
S. aureus DSM 20231 [6], first compound 0.1 µg/mL, partner 0.25 µg/mL | 0.875
S. aureus DSM 20231 [6], first compound 0.2 µg/mL, partner 0.0625 µg/mL | 0.73
S. aureus DSM 20231 [6], first compound 0.2 µg/mL, partner 0.125 µg/mL | 0.736
S. aureus DSM 20231 [6], first compound 0.2 µg/mL, partner 0.25 µg/mL | 0.7
S. aureus DSM 20231 [6], first compound 0.4 µg/mL, partner 0.0625 µg/mL | 0.361
S. aureus DSM 20231 [6], first compound 0.4 µg/mL, partner 0.125 µg/mL | 0.242
S. aureus DSM 20231 [6], first compound 0.4 µg/mL, partner 0.25 µg/mL | 0.267
S. pneumoniae D39V [7], first compound 0.2 µg/mL, partner 2 µg/mL | 0.731
S. pneumoniae D39V [7], first compound 0.215 µg/mL, partner 0.5 µg/mL | 0.857
S. pneumoniae D39V [7], first compound 0.215 µg/mL, partner 1 µg/mL | 0.882
S. pneumoniae D39V [7], first compound 0.215 µg/mL, partner 2 µg/mL | 0.836
S. pneumoniae D39V [7], first compound 0.4 µg/mL, partner 2 µg/mL | 0.642
S. pneumoniae D39V [7], first compound 0.43 µg/mL, partner 0.5 µg/mL | 0.73
S. pneumoniae D39V [7], first compound 0.43 µg/mL, partner 1 µg/mL | 0.781
S. pneumoniae D39V [7], first compound 0.43 µg/mL, partner 2 µg/mL | 0.741
S. pneumoniae D39V [7], first compound 0.8 µg/mL, partner 2 µg/mL | 0.333
S. pneumoniae D39V [7], first compound 0.86 µg/mL, partner 0.5 µg/mL | 0.268
S. pneumoniae D39V [7], first compound 0.86 µg/mL, partner 1 µg/mL | 0.207
S. pneumoniae D39V [7], first compound 0.86 µg/mL, partner 2 µg/mL | 0.195
